Measured values: US11725015B2, “Macrocyclic compound and uses thereof” (President and Fellows of Harvard College, priority 2017, dated 2023)

Assays:
[1] = test system: HSC-2-Luc orthotopic transplantation (tongue); test: HSC-2 orthotopic transplantation mouse model; format: in vivo, mice; conditions: Q7D×3
[2] = various in vivo models; cited from earlier work
[3] = in comparison with Halichondrin B; cited from earlier work
[4] = not only in vitro but also in vivo; cited from earlier work

In the case of `N.N.[Cl][Pt][Cl]` [Cisplatin, cisplatin, reference compound], the “ILS (%)” value ([1]; 5 mg/kg intravenously + cetuximab 5 mg/kg) is reported as 150% and the “ILS (%)” value ([1]; 5 mg/kg intravenously, without cetuximab) is reported as 0%.
For `C=C1C[C@@H]2CC[C@@]34C[C@@]5(O)O[C@H]6[C@@H](O3)[C@H]3O[C@H](CC[C@@H]3O[C@H]6[C@H]5O4)CC(=O)O[C@@H]3[C@@H](C)[C@@H]4O[C@@H]5C[C@]6(C[C@@H]7O[C@]8(C[C@H](C)[C@@H]9O[C@H]([C@@H](O)C[C@@H](O)CO)C[C@@H]9O8)C[C@H](C)[C@@H]7O6)O[C@@H]5C[C@@H]4O[C@H]3C[C@H]3O[C@@H](CC[C@@H]1O2)C[C@@H](C)C3=C` [Halichondrin C], the activity in vivo [2] is listed as “active in various in vivo models” and the “stability in aqueous solution” value [3] is listed as “unstable in aqueous solution”.
For `C=C1C[C@@H]2CC[C@@]34C[C@H]5O[C@H]6[C@@H](O3)[C@H]3O[C@H](CC[C@@H]3O[C@H]6[C@H]5O4)CC(=O)O[C@@H]3[C@@H](C)[C@@H]4O[C@@H]5C[C@]6(CC7O[C@@]8(C[C@H](C)C7O6)C[C@H](C)[C@@H]6O[C@H](CC(=O)O)[C@H](O)C[C@@H]6O8)O[C@@H]5CC4O[C@H]3C[C@H]3O[C@@H](CC[C@@H]1O2)C[C@@H](C)C3=C` (some centres unmarked) [Norhalichondrin B], the “anti-tumor activity compared with Halichondrin B” value [4] is given as “much weaker than Halichondrin B”.
